Experimental data taken from the supplement of paper PMC4862054.

Key:
Details in all cases: incubation time: 72 h
MDA-MB-436 [1] = test: normalised response (% of control), CellTiter-Glo; higher = more viable cells (100 = DMSO, 0 = benzethonium chloride kill control)
Outline: (§1)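 Plates were normalised with 0.1 % DMSO as 100 and a positive kill control as 0. Breast cancer cell lines in 20 µl suspension had been seeded into 384-well plates with compound at 5 concentrations in 10-fold steps over a compound-specific 10,000-fold range, incubated 72 h, and read for CellTox Green fluorescence (485/520 nm) followed by CellTiter-Glo luminescence. Each value is the normalised signal at a single concentration.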

HCC1143 [2] = test: as above
Outline: as §1

BT-549 [3] = test: as above
Outline: as §1

MDA-MB-453 [4] = test: as above
Outline: as §1

CAL-148 [5] = test: as above
Outline: as §1

DU-4475 [6] = test: as above
Outline: as §1

MDA-MB-231 [7] = test: as above
Outline: as §1

SK-BR-3 = test: as above
Outline: as §1

BT-474 [8] = test: as above
Outline: as §1

MCF-10A [9] = test: as above
Outline: as §1

MDA-MB-468 [10] = test: as above
Outline: as §1

HDQ-P1 [11] = test: as above
Outline: as §1

Hs578T [12] = test: as above
Outline: as §1

CAL-120 [13] = test: as above
Outline: as §1

CAL-85-1 [14] = test: as above
Outline: as §1

MFM-223 [15] = test: as above
Outline: as §1

HCC1937 [16] = test: as above
Outline: as §1

CAL-51 [17] = test: as above
Outline: as §1

HCC1599 [18] = test: as above
Outline: as §1

MDA-MB-436 [19] = test: normalised response (% of control), CellTox Green; higher = less cell death (100 = DMSO, 0 = benzethonium chloride kill control)
Outline: as §1

HCC1143 [20] = test: as above
Outline: as §1

BT-549 [21] = test: as above
Outline: as §1

MDA-MB-453 [22] = test: as above
Outline: as §1

CAL-148 [23] = test: as above
Outline: as §1

DU-4475 [24] = test: as above
Outline: as §1

MDA-MB-231 [25] = test: as above
Outline: as §1

BT-474 [26] = test: as above
Outline: as §1

MDA-MB-468 [27] = test: as above
Outline: as §1

HDQ-P1 [28] = test: as above
Outline: as §1

Hs578T [29] = test: as above
Outline: as §1

CAL-120 [30] = test: as above
Outline: as §1

CAL-85-1 [31] = test: as above
Outline: as §1

MFM-223 [32] = test: as above
Outline: as §1

HCC1937 [33] = test: as above
Outline: as §1

CAL-51 [34] = test: as above
Outline: as §1

HCC1599 [35] = test: as above
Outline: as §1

MCF-10A [36] = test: as above
Outline: as §1

SMILES	normalised response (MDA-MB-436 [1]) [%]	normalised response (HCC1143 [2]) [%]	normalised response (BT-549 [3]) [%]	normalised response (MDA-MB-453 [4]) [%]	normalised response (CAL-148 [5]) [%]	normalised response (DU-4475 [6]) [%]	normalised response (MDA-MB-231 [7]) [%]	normalised response (SK-BR-3) [%]	normalised response (BT-474 [8]) [%]	normalised response (MCF-10A [9]) [%]	normalised response (MDA-MB-468 [10]) [%]	normalised response (HDQ-P1 [11]) [%]	normalised response (Hs578T [12]) [%]	normalised response (CAL-120 [13]) [%]	normalised response (CAL-85-1 [14]) [%]	normalised response (MFM-223 [15]) [%]	normalised response (HCC1937 [16]) [%]	normalised response (CAL-51 [17]) [%]	normalised response (HCC1599 [18]) [%]	normalised response (MDA-MB-436 [19]) [%]	normalised response (HCC1143 [20]) [%]	normalised response (BT-549 [21]) [%]	normalised response (MDA-MB-453 [22]) [%]	normalised response (CAL-148 [23]) [%]	normalised response (DU-4475 [24]) [%]	normalised response (MDA-MB-231 [25]) [%]	normalised response (BT-474 [26]) [%]	normalised response (MDA-MB-468 [27]) [%]	normalised response (HDQ-P1 [28]) [%]	normalised response (Hs578T [29]) [%]	normalised response (CAL-120 [30]) [%]	normalised response (CAL-85-1 [31]) [%]	normalised response (MFM-223 [32]) [%]	normalised response (HCC1937 [33]) [%]	normalised response (CAL-51 [34]) [%]	normalised response (HCC1599 [35]) [%]	normalised response (MCF-10A [36]) [%]
CO[C@H]1C[C@@H]2CC[C@@H](C)[C@@](O)(O2)C(=O)C(=O)N2CCCC[C@H]2C(=O)O[C@H]([C@H](C)C[C@@H]2CC[C@@H](OC(=O)C(C)(CO)CO)[C@H](OC)C2)CC(=O)[C@H](C)/C=C(\C)[C@@H](O)[C@@H](OC)C(=O)[C@H](C)C[C@H](C)/C=C/C=C/C=C/1C [Temsirolimus] (10 nM)	79.9	63.9	55.1	53.5	62.1	74.8	93	60.7	83.3	87.7	62.1	77.4	70	67.8	67.9	70.7	74.4	55.5	109	102	84	134	107	90.9	95.5	124	103	103	97.4	-83.2	101	95.8	75.2	-57.4	107	101	–
COc1cc(Nc2ncc3c(n2)-c2ccc(Cl)cc2C(c2c(F)cccc2OC)=NC3)ccc1C(=O)O [Alisertib] (1000 nM)	62	71.3	49.2	140	62.6	67.6	78	76	70.9	76.3	27.2	84.3	84.4	79.5	90.5	56.4	86.5	56.5	82.6	73.5	85.8	76.9	110	53.8	92.2	69.1	96	8.1	78.2	96.3	96.9	93.3	89.1	122	17.4	96.6	108
